Where a name gives a salt, the structure may show the parent alone. Read-outs that look alike come from different tables or passages of the source.

What all share (assay): AK assay 384-well format, Prestwick library screening
The test system of experiment [1] is E. cloacae. Type of experiment: cell-based, Enterobacter cloacae. To be noted: 50 μM final drug concentration; for fold induction at 50 µM: Enterobacter cloacae, 3 h.
Experiment [2] deals with P. aeruginosa. Type of experiment: cell-based, Pseudomonas aeruginosa. As to conditions: 50 μM final drug concentration; for fold induction at 50 µM: Pseudomonas aeruginosa, 3 h.
Experiment [3] concerns K. pneumoniae. Type of experiment: cell-based, Klebsiella pneumoniae. To be noted: 50 μM final drug concentration; for fold induction at 50 µM: Klebsiella pneumoniae, 3 h.
The test system of experiment [4] is S. aureus strain USA300-0114. It is filed as cell-based, Staphylococcus aureus. To be noted: 50 μM final drug concentration; for fold induction at 50 µM: Staphylococcus aureus, USA300, 3 h.
In experiment [5] the test system is E. faecium. Type of experiment: cell-based, Enterococcus faecium. As to conditions: 50 μM final drug concentration; for fold induction at 50 µM: Enterococcus faecium, 3 h.
Experiment [6] has as its system A. baumannii strain 98-37-09. Type of experiment: cell-based, Acinetobacter baumannii. As to conditions: 50 μM final drug concentration; for fold induction at 50 µM: Acinetobacter baumannii, 983709, 3 h.
The test system of experiment [7] is E. coli. Type of experiment: cell-based, Escherichia coli. As to conditions: 50 μM final drug concentration; for fold induction at 50 µM: Escherichia coli, 3 h.
Setting [8] is: 384-well format, cutoff for positive-scoring molecules 3-fold increase, read-out: AK-based Prestwick Library Screening Results, E. cloacae (increase in extracellular AK activity).
Where [9] appears, read: 384-well format, cutoff for positive-scoring molecules 3-fold increase, read-out: AK-based Prestwick Library Screening Results, P. aeruginosa (increase in extracellular AK activity).
The mark [10] stands for this setting: 384-well format, cutoff for positive-scoring molecules 3-fold increase, read-out: AK-based Prestwick Library Screening Results, K. pneumoniae (increase in extracellular AK activity).
Setting [11] is: 384-well format, cutoff for positive-scoring molecules 3-fold increase, read-out: AK-based Prestwick Library Screening Results, S. aureus (increase in extracellular AK activity).
Where [12] appears, read: 384-well format, cutoff for positive-scoring molecules 3-fold increase, read-out: AK-based Prestwick Library Screening Results, E. faecium (increase in extracellular AK activity).
[13] abbreviates: 384-well format, cutoff for positive-scoring molecules 3-fold increase, read-out: AK-based Prestwick Library Screening Results, A. baumannii (increase in extracellular AK activity).
[14] abbreviates: 384-well format, cutoff for positive-scoring molecules 3-fold increase, read-out: AK-based Prestwick Library Screening Results, E. coli (increase in extracellular AK activity).
Where [15] appears, read: planktonic E. cloacae, cutoff for positive-scoring molecules 3-fold increase, read-out: AK-based Prestwick Library Screening Results, E. cloacae (increase in extracellular AK activity).
Setting [16] is: planktonic P. aeruginosa, cutoff for positive-scoring molecules 3-fold increase, read-out: AK-based Prestwick Library Screening Results, P. aeruginosa (increase in extracellular AK activity).
Setting [17] is: planktonic K. pneumoniae, cutoff for positive-scoring molecules 3-fold increase, read-out: AK-based Prestwick Library Screening Results, K. pneumoniae (increase in extracellular AK activity).
Setting [18] is: planktonic S. aureus, cutoff for positive-scoring molecules 3-fold increase, read-out: AK-based Prestwick Library Screening Results, S. aureus (increase in extracellular AK activity).
The mark [19] stands for this setting: planktonic E. faecium, cutoff for positive-scoring molecules 3-fold increase, read-out: AK-based Prestwick Library Screening Results, E. faecium (increase in extracellular AK activity).
Where [20] appears, read: planktonic A. baumannii, cutoff for positive-scoring molecules 3-fold increase, read-out: AK-based Prestwick Library Screening Results, A. baumannii (increase in extracellular AK activity).
Setting [21] is: planktonic E. coli, cutoff for positive-scoring molecules 3-fold increase, read-out: AK-based Prestwick Library Screening Results, E. coli (increase in extracellular AK activity).
The mark [22] stands for this setting: cutoff for positive-scoring molecules 3-fold increase.
Where [23] appears, read: planktonic, cutoff for positive-scoring molecules 3-fold increase, read-out: AK-based Prestwick Library Screening Results, E. cloacae (fold increase in extracellular AK activity).
Setting [24] is: planktonic, cutoff for positive-scoring molecules 3-fold increase, read-out: AK-based Prestwick Library Screening Results, P. aeruginosa (fold increase in extracellular AK activity).
Where [25] appears, read: planktonic, cutoff for positive-scoring molecules 3-fold increase, read-out: AK-based Prestwick Library Screening Results, K. pneumoniae (fold increase in extracellular AK activity).
[26] abbreviates: planktonic, cutoff for positive-scoring molecules 3-fold increase, read-out: AK-based Prestwick Library Screening Results, S. aureus (fold increase in extracellular AK activity).
Setting [27] is: planktonic, cutoff for positive-scoring molecules 3-fold increase, read-out: AK-based Prestwick Library Screening Results, E. faecium (fold increase in extracellular AK activity).
The mark [28] stands for this setting: planktonic, cutoff for positive-scoring molecules 3-fold increase, read-out: AK-based Prestwick Library Screening Results, A. baumannii (fold increase in extracellular AK activity).
Where [29] appears, read: planktonic, cutoff for positive-scoring molecules 3-fold increase, read-out: AK-based Prestwick Library Screening Results, E. coli (fold increase in extracellular AK activity).

Consider `CN(C)CCC=C1c2ccccc2COc2ccccc21` [Doxepin hydrochloride], for which the fold induction at 50 µM was 1 in experiment [1] (setting [8]); 1.1 in experiment [2] (setting [9]); 0.8 in experiment [3] (setting [10]); 0.9 in experiment [4] (setting [11]); 1 in experiment [5] (setting [12]); 0.9 in experiment [6] (setting [13]). For the same compound, the fold induction at 50 µM in experiment [7] (setting [14]) is 1.1.
Consider `COc1cccc2c1C(=O)c1c(O)c3c(c(O)c1C2=O)C[C@@](O)(C(=O)CO)C[C@@H]3O[C@H]1C[C@H](N)[C@H](O)[C@H](C)O1` [Doxorubicin hydrochloride], for which the fold induction at 50 µM in experiment [1] (setting [15]) is 1.2; in experiment [2] (setting [16]), 0.6; in experiment [3] (setting [17]), 0.7; in experiment [4] (setting [18]) it was 0.9; in experiment [5] (setting [19]), 1.7; in experiment [6] (setting [20]) it was 1. Moreover, in experiment [7] (setting [21]), the fold induction at 50 µM was found to be 1.
As for `CCO.C[C@H]1c2cccc(O)c2C(O)=C2C(=O)[C@]3(O)C(O)=C(C(N)=O)C(=O)[C@@H](N(C)C)[C@@H]3[C@@H](O)[C@@H]21.C[C@H]1c2cccc(O)c2C(O)=C2C(=O)[C@]3(O)C(O)=C(C(N)=O)C(=O)[C@@H](N(C)C)[C@@H]3[C@@H](O)[C@@H]21.Cl.Cl.O` [Doxycycline hyclate], in experiment [1] (setting [22]), the “AK-based Prestwick Library Screening Results, E. cloacae (fold increase in extracellular AK activity)” value came to 1.5. Besides, the “AK-based Prestwick Library Screening Results, P. aeruginosa (fold increase in extracellular AK activity)” value in experiment [2] (setting [22]) came to 0.7. Besides, the “AK-based Prestwick Library Screening Results, K. pneumoniae (fold increase in extracellular AK activity)” value in experiment [3] (setting [22]) amounted to 0.3. The “AK-based Prestwick Library Screening Results, S. aureus (fold increase in extracellular AK activity)” value in experiment [4] (setting [22]) amounted to 9.4. For the same compound, in experiment [5] (setting [22]), the “AK-based Prestwick Library Screening Results, E. faecium (fold increase in extracellular AK activity)” value came out at 1.1. The “AK-based Prestwick Library Screening Results, A. baumannii (fold increase in extracellular AK activity)” value in experiment [6] (setting [22]) stood at 3.4. Moreover, in experiment [7] (setting [22]), the “AK-based Prestwick Library Screening Results, E. coli (fold increase in extracellular AK activity)” value was found to be 2.0.
In the case of `CN(C)CCOC(C)(c1ccccc1)c1ccccn1` (stereo not shown) [Doxylamine succinate], the fold induction at 50 µM in experiment [1] (setting [8]) worked out at 1; in experiment [2] (setting [9]), 0.8; in experiment [3] (setting [10]), 0.6; in experiment [4] (setting [11]), 0.7; in experiment [5] (setting [12]) it was 0.9; in experiment [6] (setting [13]) it was 0.8. Besides, the fold induction at 50 µM in experiment [7] (setting [14]) was 0.8.
On to `CCN(CC)CCOC(=O)C(c1ccccc1)C1CCCCC1` (stereo not shown) [Drofenine hydrochloride], for which the fold induction at 50 µM in experiment [1] (cutoff for positive-scoring molecules 3-fold increase, read-out: AK-based Prestwick Library Screening Results, E. cloacae (fold increase in extracellular AK activity)) came out at 1.5; in experiment [2] (cutoff for positive-scoring molecules 3-fold increase, read-out: AK-based Prestwick Library Screening Results, P. aeruginosa (fold increase in extracellular AK activity)), 1.2; in experiment [3] (cutoff for positive-scoring molecules 3-fold increase, read-out: AK-based Prestwick Library Screening Results, K. pneumoniae (fold increase in extracellular AK activity)) it was 1.2; in experiment [4] (cutoff for positive-scoring molecules 3-fold increase, read-out: AK-based Prestwick Library Screening Results, S. aureus (fold increase in extracellular AK activity)) it was 1.5; in experiment [5] (cutoff for positive-scoring molecules 3-fold increase, read-out: AK-based Prestwick Library Screening Results, E. faecium (fold increase in extracellular AK activity)), 1; in experiment [6] (cutoff for positive-scoring molecules 3-fold increase, read-out: AK-based Prestwick Library Screening Results, A. baumannii (fold increase in extracellular AK activity)), 1.3. Besides, the fold induction at 50 µM in experiment [7] (cutoff for positive-scoring molecules 3-fold increase, read-out: AK-based Prestwick Library Screening Results, E. coli (fold increase in extracellular AK activity)) was determined as 1.5.
Consider `O=C(CCCN1CC=C(n2c(=O)[nH]c3ccccc32)CC1)c1ccc(F)cc1` [Droperidol], for which the fold induction at 50 µM in experiment [1] (setting [15]) is 1.2; in experiment [2] (setting [16]) it was 0.7; in experiment [3] (setting [17]), 0.7; in experiment [4] (setting [18]), 0.9; in experiment [5] (setting [19]), 1; in experiment [6] (setting [20]), 1. For the same compound, in experiment [7] (setting [21]), the fold induction at 50 µM was 0.9.
Consider `COc1c2c(nc3ccccc13)OC(C(C)(O)CO)C2` (stereo not shown) [Dubinidine], for which the “AK-based Prestwick library screening result, E. cloacae (fold increase in extracellular AK activity)” value in experiment [1] (planktonic E. cloacae, positive cutoff 3-fold increase) is listed as 1.3. The “AK-based Prestwick library screening result, P. aeruginosa (fold increase in extracellular AK activity)” value in experiment [2] (planktonic P. aeruginosa, positive cutoff 3-fold increase) is reported as 1.0. Also, in experiment [3] (planktonic K. pneumoniae, positive cutoff 3-fold increase), the “AK-based Prestwick library screening result, K. pneumoniae (fold increase in extracellular AK activity)” value is listed as 0.9. In experiment [4] (planktonic S. aureus, positive cutoff 3-fold increase), the “AK-based Prestwick library screening result, S. aureus (fold increase in extracellular AK activity)” value is 2.4. Besides, the “AK-based Prestwick library screening result, E. faecium (fold increase in extracellular AK activity)” value in experiment [5] (planktonic E. faecium, positive cutoff 3-fold increase) is 1.0. Moreover, in experiment [6] (planktonic A. baumannii, positive cutoff 3-fold increase), the “AK-based Prestwick library screening result, A. baumannii (fold increase in extracellular AK activity)” value came to 1.1. For the same compound, the “AK-based Prestwick library screening result, E. coli (fold increase in extracellular AK activity)” value in experiment [7] (planktonic E. coli, […]) is recorded as 1.4.
For `CCCCOc1ccc(C(=O)CCN2CCCCC2)cc1` [Dyclonine hydrochloride], the fold induction at 50 µM amounted to 1.1 in experiment [1] (setting [8]); 1 in experiment [2] (setting [9]); 0.7 in experiment [3] (setting [10]); 0.9 in experiment [4] (setting [11]); 1 in experiment [5] (setting [12]); 0.9 in experiment [6] (setting [13]). In addition, the fold induction at 50 µM in experiment [7] (setting [14]) worked out at 1.
For `CC(=O)[C@H]1CC[C@H]2[C@@H]3C=CC4=CC(=O)CC[C@@]4(C)[C@@H]3CC[C@]12C` [Dydrogesterone], the fold induction at 50 µM in experiment [1] (setting [23]) turned out to be 1.2; in experiment [2] (setting [24]), 0.9; in experiment [3] (setting [25]) it was 0.8; in experiment [4] (setting [26]), 0.7; in experiment [5] (setting [27]), 1; in experiment [6] (setting [28]) it was 0.8. Further, in experiment [7] (setting [29]), the fold induction at 50 µM turned out to be 0.9.
As for `O=c1c2ccccc2[se]n1-c1ccccc1` [Ebselen], the fold induction at 50 µM in experiment [1] (setting [23]) worked out at 0.7; in experiment [2] (setting [24]), 0.6; in experiment [3] (setting [25]), 0.6; in experiment [4] (setting [26]), 0.5; in experiment [5] (setting [27]) it was 0.9; in experiment [6] (setting [28]) it was 0.7. For the same compound, in experiment [7] (setting [29]), the fold induction at 50 µM amounted to 0.6.

The values are drawn from patent US10004701B2, “Methods and compositions for treating infection” (UNIVERSITY OF ROCHESTER, priority 2012, dated 2018).
